From patent US20200080076A1, “Expressed Barcode Libraries and Uses Thereof” (The Broad Institute, Inc., priority 2018, published 2020)

Columns and labels:
[1] = system: OVCAR3 H2B-GFP cells; experiment: In vitro platinum-sensitive relapse model, live cell number by time-lapse imaging; type: cell-based; conditions: six days of treatment, FIG. 1C carboplatin 6.25 μM, FIG. 1D cisplatin 50 μM
From the text: FIGS. 1A-1E show the in vitro modeling of non-inherited drug resistance. […] FIGS. 1B-1E show relapse dynamics. Length of drug treatments are indicated as red shaded areas within the graphs. […] While much effort has been focused on experimental models to study the emergence of platinum-resistance (Cunnea & Stronach, Front Oncol 4:81 (2014)), little attention has been given to the development of robust methods to model platinum-sensitive relapse. As the clinical classification of relapse is based both on the effectiveness of the treatment and the time to recurrence, the present study aimed to establish a system that can capture both these aspects. Analogous to the CA125 levels that are used to monitor disease progression in patients, direct measurement of cell number was used to monitor response in vitro. To this end, an OVCAR3 H2B-GFP cell line was generated. OVCAR3 is a commonly used HGSOC model and the H2B-GFP allows the easy quantification of the number of live cells during the course of drug treatment. […] This response was quantified based on time-lapse images and a striking similarity was found between the pattern of platinum-sensitive relapse observed in patients (FIG. 1B), as measured by CA125 levels, and the pattern observed in vitro in this study (FIG. 1C-D). […]

[2] = system: Watermelon-transduced PC-9 cells; experiment: Sensitivity of Watermelon-transduced PC-9 cells to EGFR-TKIs, number of mCherry objects; type: cell-based; conditions: varying concentrations (FIGS. 6B and 6C)
From the text: FIGS. 6A-6D show the modeling of non-inherited drug resistance of PC-9 cells to EGFR tyrosine kinase inhibitors (EGFR-TKI).

SMILES | response of cells to platinum treatment (number of live cells) [1] | sensitivity of cells to EGFR-TKI (number of mCherry objects) [2]
N.N.O=C([O-])C1(C(=O)[O-])CCC1.[Pt+2] [carboplatin] | the majority of cells died | –
N.N.[Cl][Pt][Cl] [cisplatin] | the majority of cells died | –
C=CC(=O)Nc1cc(Nc2nccc(-c3cn(C)c4ccccc34)n2)c(OC)cc1N(C)CCN(C)C [osimertinib] | – | sensitive
